Assay results taken from the NIST ThermoML archive (doi:10.1021/je100897y).
“And” between values parts separate entries of the source, which are not always exact repeats. Equal entries are not always repeated. Numbers after ± are expanded uncertainties.

Columns and labels:
[1] = excess molar enthalpy (molar enthalpy of mixing); xn = mol fraction of the nth substance listed; settings: 298.15 K, 101 kPa, Liquid, Flow calorimetry
[2] = 298.15 K; 101.33 kPa; Liquid

CCCOCCC [dipropyl ether] + C=CCCCC
[1]
Settings	excess molar enthalpy [kcal/mol]
x1 = 0.0529	0.00158 ± 0.000201
x1 = 0.1001	0.00289 ± 0.00021
x1 = 0.15	0.00394 ± 0.000217
x1 = 0.2001	0.0048 ± 0.000225
x1 = 0.25	0.00545 ± 0.000229
x1 = 0.3002	0.00595 ± 0.000232
x1 = 0.3499	0.00632 ± 0.000234
x1 = 0.4001	0.00654 ± 0.000237
x1 = 0.4501	0.00671 ± 0.000239
x1 = 0.5001	0.00669 ± 0.000239
x1 = 0.55	0.00661 ± 0.000237
x1 = 0.5998	0.00641 ± 0.000237
x1 = 0.6499	0.00609 ± 0.000234
x1 = 0.6996	0.0057 ± 0.000232
x1 = 0.75	0.00515 ± 0.000227
x1 = 0.8003	0.0045 ± 0.000222
x1 = 0.85	0.00368 ± 0.000215
x1 = 0.9	0.00271 ± 0.000208
x1 = 0.95	0.00146 ± 0.000198

C=CCCCC [hex-1-ene]
Settings	mass density [kg/m3]
[2]	668.762 ± 0.96

CCCOCCC [dipropyl ether]
Settings	mass density [kg/m3]
[2]	741.997 ± 0.83

CCCOCCC [dipropyl ether] + CCCCOCCCC
[1]
Settings	excess molar enthalpy [kcal/mol]
x1 = 0.05	0.000533 ± 0.000189
x1 = 0.1	0.00102 ± 0.000194
x1 = 0.15	0.0014 ± 0.000196
x1 = 0.2001	0.00175 ± 0.000198
x1 = 0.25	0.00205 ± 0.000201
x1 = 0.3	0.00229 ± 0.000203
x1 = 0.35	0.00246 ± 0.000206
x1 = 0.3998	0.00261 ± 0.000206
x1 = 0.4497	0.00275 ± 0.000208
x1 = 0.4998	0.00283 ± 0.000208
x1 = 0.5004	0.00283 ± 0.000208
x1 = 0.55	0.00284 ± 0.000208
x1 = 0.6001	0.00281 ± 0.000208
x1 = 0.65	0.00271 ± 0.000208
x1 = 0.6999	0.00253 ± 0.000206
x1 = 0.75	0.00228 ± 0.000203
x1 = 0.8	0.00196 ± 0.000201
x1 = 0.8503	0.00159 ± 0.000198
x1 = 0.9	0.00111 ± 0.000196
x1 = 0.95	0.000612 ± 0.000191

CCCOCCC [dipropyl ether] + C1CCOC1
[1]
Settings	excess molar enthalpy
x1 = 0.05	0.0125 ± 0.000359 kcal/mol
x1 = 0.1	0.0232 ± 0.000454 kcal/mol
x1 = 0.1501	0.0325 ± 0.00055 kcal/mol
x1 = 0.2	0.0402 ± 0.000621 kcal/mol
x1 = 0.2498	0.0468 ± 0.000693 kcal/mol
x1 = 0.2998	0.0518 ± 0.000741 kcal/mol
x1 = 0.3503	0.0556 ± 0.000789 kcal/mol
x1 = 0.3998	0.058 ± 0.000813 kcal/mol
x1 = 0.45	0.0591 ± 0.000837 kcal/mol
x1 = 0.4998	0.0594 kcal/mol and 0.0593 kcal/mol
x1 = 0.5499	0.0585 ± 0.000837 kcal/mol
x1 = 0.5999	0.0565 ± 0.000813 kcal/mol
x1 = 0.6502	0.0535 ± 0.000765 kcal/mol
x1 = 0.7003	0.0493 ± 0.000717 kcal/mol
x1 = 0.7499	0.0441 ± 0.000669 kcal/mol
x1 = 0.7999	0.0381 ± 0.000598 kcal/mol
x1 = 0.85	0.0305 ± 0.000526 kcal/mol
x1 = 0.9	0.0216 ± 0.00043 kcal/mol
x1 = 0.95	0.0115 ± 0.000335 kcal/mol

C1CCOC1 [tetrahydrofuran]
Settings	mass density [kg/m3]
[2]	882.078 ± 0.21
